Test [1] concerns the target Tau-tubulin kinase 2 (Homo sapiens) (UniProt Q6IQ55). Put plainly: Selectivity interaction (ProQinase) EUB0000171b TTBK2.
Test [2] has as its target Serine/threonine-protein kinase PLK2 (Homo sapiens, UniProt Q9NYY3). As to conditions: at 10 µM.
Test [3] addresses Insulin-like growth factor 1 receptor (Homo sapiens, UniProt P08069). Put plainly: Selectivity interaction (KinomeScan (DiscoverX)) EUB0001079a IGF1R. As to conditions: at 1 µM.
Test [4] addresses T1, Inhibitor of nuclear factor kappa-B kinase subunit beta (Homo sapiens) (UniProt O14920).
T1 sequence (whole entry): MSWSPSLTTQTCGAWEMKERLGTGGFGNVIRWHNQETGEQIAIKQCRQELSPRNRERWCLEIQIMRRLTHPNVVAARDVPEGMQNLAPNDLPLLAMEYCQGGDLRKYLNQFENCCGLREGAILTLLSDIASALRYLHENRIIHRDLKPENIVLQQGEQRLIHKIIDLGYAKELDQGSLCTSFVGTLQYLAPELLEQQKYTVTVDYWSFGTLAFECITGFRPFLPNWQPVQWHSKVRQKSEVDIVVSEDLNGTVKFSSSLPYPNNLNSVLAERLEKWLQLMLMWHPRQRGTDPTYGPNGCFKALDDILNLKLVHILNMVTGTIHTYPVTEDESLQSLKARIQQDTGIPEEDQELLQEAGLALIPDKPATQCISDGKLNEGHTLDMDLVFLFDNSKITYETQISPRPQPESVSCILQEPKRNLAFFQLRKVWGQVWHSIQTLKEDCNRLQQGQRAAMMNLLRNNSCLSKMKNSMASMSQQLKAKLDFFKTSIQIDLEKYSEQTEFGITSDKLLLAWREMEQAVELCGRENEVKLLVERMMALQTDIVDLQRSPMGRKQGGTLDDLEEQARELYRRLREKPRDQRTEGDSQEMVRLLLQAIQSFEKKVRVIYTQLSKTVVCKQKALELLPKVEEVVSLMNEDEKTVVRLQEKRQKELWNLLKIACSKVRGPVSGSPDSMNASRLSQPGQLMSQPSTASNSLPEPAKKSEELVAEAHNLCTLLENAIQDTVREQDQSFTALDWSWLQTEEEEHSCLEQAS
Put plainly: Selectivity interaction (ActivX KiNativ screen (kinase selectivity in THP-1 cell lysates)) EUB0000639a IKBKB. It counts as subcellular. Particulars: lysate, at 0.04 µM.

The target in test [5] is T2, Serine/threonine-protein kinase tousled-like 1 (Homo sapiens) (UniProt Q9UKI8).
T2 sequence (whole entry): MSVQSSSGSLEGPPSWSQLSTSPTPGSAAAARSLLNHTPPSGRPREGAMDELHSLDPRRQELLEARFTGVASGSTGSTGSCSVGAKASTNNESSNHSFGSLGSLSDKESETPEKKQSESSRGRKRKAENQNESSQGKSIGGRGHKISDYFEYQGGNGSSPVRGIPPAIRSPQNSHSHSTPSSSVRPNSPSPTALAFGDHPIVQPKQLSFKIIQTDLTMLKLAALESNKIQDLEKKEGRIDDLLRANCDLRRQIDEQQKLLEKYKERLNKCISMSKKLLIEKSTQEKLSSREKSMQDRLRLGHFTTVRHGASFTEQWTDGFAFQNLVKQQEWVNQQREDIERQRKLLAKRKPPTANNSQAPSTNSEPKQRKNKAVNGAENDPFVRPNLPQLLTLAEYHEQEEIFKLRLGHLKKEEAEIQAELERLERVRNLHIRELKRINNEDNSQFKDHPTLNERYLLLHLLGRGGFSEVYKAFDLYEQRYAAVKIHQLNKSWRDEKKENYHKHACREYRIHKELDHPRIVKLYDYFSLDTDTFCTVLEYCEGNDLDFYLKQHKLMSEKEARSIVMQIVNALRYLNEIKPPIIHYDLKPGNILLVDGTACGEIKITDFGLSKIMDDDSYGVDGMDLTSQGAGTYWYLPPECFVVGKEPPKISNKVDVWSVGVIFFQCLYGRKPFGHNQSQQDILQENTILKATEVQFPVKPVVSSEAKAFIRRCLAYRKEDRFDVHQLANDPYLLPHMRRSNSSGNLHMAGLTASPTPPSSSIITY
Briefly: Selectivity interaction (ActivX KiNativ screen (kinase selectivity in THP-1 cell lysates)) EUB0000639a TLK1. The format is subcellular. Particulars: lysate, at 0.04 µM.

Test [6] concerns the target T3, Dual specificity tyrosine-phosphorylation-regulated kinase 2 (Homo sapiens) (UniProt Q92630).
T3 sequence (whole entry): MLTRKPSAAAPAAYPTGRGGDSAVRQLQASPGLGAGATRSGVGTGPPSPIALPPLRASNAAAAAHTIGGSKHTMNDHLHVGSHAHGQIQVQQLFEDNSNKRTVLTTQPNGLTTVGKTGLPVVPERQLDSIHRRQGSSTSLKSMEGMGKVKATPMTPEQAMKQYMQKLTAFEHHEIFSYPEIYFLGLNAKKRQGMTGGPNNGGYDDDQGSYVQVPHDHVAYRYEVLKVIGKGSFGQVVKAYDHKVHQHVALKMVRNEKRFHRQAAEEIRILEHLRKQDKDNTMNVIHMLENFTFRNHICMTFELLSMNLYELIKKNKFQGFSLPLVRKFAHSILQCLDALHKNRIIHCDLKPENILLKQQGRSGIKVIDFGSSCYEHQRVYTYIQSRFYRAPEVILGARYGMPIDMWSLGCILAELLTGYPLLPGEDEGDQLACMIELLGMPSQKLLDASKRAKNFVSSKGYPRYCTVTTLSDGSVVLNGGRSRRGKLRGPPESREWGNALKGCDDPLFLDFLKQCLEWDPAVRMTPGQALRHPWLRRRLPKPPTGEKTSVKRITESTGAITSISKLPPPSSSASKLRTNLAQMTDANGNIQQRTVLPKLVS
Briefly: Selectivity interaction (KinomeScan (DiscoverX)) EUB0000229b DYRK2. Particulars: at 10 µM.

In test [7] the target is Histone-lysine N-methyltransferase 2A (Homo sapiens) (UniProt Q03164). Put plainly: Selectivity interaction (Human bromodomain panel (DSF assay)) EUB0000233b MLL.

Chain of Tau-tubulin kinase 2 (Homo sapiens) (Q6IQ55 whole entry): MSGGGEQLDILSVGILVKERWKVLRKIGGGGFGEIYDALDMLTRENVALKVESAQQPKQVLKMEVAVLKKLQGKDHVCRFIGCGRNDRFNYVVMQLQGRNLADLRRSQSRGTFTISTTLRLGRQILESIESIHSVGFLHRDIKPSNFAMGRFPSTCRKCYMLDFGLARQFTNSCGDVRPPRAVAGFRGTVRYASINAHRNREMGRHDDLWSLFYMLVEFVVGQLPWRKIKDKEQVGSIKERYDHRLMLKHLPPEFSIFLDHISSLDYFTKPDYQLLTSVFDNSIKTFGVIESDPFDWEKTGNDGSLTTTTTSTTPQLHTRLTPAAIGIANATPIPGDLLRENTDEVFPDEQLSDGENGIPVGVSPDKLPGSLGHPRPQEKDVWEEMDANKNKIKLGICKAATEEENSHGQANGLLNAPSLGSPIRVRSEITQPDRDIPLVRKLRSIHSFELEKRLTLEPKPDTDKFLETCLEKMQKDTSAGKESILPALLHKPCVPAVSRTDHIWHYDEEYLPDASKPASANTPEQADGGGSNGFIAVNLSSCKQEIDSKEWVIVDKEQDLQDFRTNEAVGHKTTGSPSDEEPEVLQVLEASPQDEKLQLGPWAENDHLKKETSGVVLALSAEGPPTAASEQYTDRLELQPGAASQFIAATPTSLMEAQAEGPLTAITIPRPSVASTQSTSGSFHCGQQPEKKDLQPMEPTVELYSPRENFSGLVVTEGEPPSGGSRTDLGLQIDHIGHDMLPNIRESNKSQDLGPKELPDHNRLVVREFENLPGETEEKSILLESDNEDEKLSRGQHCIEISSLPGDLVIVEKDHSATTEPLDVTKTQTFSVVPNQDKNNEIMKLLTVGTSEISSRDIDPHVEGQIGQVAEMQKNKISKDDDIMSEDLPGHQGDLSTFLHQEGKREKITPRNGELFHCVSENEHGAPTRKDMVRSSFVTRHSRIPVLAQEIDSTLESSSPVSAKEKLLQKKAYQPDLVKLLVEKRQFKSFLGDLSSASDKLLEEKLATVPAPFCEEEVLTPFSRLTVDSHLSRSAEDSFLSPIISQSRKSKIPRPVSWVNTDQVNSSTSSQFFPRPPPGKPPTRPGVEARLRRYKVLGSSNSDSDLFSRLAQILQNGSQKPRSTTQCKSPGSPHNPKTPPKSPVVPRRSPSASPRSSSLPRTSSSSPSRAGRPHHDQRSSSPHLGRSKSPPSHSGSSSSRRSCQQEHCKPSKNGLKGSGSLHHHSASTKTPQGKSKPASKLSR
Chain of Serine/threonine-protein kinase PLK2 (Q9NYY3 whole entry, looked up): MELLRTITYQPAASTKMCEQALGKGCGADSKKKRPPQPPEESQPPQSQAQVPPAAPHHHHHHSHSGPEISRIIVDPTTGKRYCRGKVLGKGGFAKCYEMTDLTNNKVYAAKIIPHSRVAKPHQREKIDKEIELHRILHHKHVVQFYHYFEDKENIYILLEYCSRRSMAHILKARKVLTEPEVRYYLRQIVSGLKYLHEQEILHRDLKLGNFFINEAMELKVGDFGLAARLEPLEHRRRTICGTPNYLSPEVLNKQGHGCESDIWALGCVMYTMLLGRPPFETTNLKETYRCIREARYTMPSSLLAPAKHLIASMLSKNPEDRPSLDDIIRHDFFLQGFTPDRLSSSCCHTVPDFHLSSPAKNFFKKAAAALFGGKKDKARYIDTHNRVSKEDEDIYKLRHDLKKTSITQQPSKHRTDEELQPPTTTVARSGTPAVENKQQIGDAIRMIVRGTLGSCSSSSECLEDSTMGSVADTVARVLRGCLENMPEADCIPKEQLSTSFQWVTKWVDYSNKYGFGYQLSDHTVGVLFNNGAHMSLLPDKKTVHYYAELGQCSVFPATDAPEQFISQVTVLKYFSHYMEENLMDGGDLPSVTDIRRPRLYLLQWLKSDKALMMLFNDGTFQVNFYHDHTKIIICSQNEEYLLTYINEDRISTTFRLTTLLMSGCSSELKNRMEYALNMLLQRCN
Chain of Insulin-like growth factor 1 receptor (P08069 31-736 limits assumed): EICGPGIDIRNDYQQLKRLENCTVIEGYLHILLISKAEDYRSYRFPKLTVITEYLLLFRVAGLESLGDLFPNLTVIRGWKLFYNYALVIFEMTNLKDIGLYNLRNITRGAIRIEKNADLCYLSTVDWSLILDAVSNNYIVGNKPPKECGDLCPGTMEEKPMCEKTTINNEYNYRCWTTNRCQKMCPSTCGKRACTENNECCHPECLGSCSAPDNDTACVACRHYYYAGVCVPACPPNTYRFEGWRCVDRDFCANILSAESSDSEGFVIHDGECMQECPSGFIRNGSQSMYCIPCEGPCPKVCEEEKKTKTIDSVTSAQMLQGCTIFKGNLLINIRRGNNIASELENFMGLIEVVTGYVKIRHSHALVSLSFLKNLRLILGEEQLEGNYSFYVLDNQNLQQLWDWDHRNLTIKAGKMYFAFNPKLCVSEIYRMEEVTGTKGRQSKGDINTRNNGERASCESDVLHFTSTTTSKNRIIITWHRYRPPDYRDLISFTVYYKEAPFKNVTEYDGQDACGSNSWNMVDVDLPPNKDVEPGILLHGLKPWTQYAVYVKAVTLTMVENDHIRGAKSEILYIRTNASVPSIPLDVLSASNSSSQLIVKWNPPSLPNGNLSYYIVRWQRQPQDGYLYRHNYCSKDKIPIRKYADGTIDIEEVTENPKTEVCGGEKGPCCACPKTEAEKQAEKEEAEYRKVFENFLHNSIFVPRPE
Chain of Insulin-like growth factor 1 receptor (P08069 741-1367 limits assumed): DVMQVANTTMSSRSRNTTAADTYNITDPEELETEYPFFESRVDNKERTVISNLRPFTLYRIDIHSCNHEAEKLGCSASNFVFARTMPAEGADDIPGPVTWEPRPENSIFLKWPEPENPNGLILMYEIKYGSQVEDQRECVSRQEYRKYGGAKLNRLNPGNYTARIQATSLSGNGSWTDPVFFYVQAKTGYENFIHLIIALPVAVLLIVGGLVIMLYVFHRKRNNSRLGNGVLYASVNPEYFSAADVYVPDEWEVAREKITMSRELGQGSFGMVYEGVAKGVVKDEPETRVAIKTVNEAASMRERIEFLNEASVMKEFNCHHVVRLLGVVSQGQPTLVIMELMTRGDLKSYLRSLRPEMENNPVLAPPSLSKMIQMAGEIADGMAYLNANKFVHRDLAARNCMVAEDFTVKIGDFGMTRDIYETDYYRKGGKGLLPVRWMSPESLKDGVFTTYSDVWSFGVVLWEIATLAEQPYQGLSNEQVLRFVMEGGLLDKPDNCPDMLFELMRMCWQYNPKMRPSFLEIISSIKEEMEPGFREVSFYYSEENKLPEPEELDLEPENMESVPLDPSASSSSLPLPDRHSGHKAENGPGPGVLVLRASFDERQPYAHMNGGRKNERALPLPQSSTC

As for `C=CC(=O)Nc1cccc(C(=O)Nc2ccc(Nc3cc(-c4[nH]c(SC)nc4C)ccn3)cc2)c1`, the % of control in test [1] (at 1 µM) is 94%; in test [1] (at 5 µM) it was 93%. `Cc1cc([C@@H](C)Nc2ccccc2C(=O)O)c2nc(N3CCOCC3)cc(=O)n2c1` [AZD-6482]: the % of control in test [2] came out at 99%. In test [3], `Nc1cnc(N2CCc3cc(S(=O)(=O)Nc4c(F)cc(Cl)cc4F)cc(N4CCCC4=O)c32)nc1` [TP-020n] displayed a % of control of 90%. Consider `CC[C@@H]1[C@H](F)C(=O)N[C@@H]1COc1nccc2cc(C(N)=O)c(OC)cc12` [ZIMLOVISERTIB], for which the % of inhibition in test [4] is -3.9%; in test [5], -7.3%. `COc1cc(N(C)c2ccnc3ccc(C(F)(F)F)cc23)cc(OC)c1OC` came in with a % binding in test [6] of 84%. The molecule `CN(C)CCCOc1ccc(-c2cc(NCCCn3cccn3)nc(S(C)(=O)=O)n2)cc1` yielded a dTM in test [7] below 2 K.

The record behind these values is ChEMBL document CHEMBL5465560, “Selectivity Literature for EUbOPEN Chemogenomic Library” (2024).
